Measured values as given in US12157730B2, “Heteroaryl derivative, method for producing same, and pharmaceutical composition comprising same as effective component” (VORONOI INC., priority 2019, dated 2024).

Molecular target: T1, Ba/F3 cell EGFR Exon20 ins NPH (Homo sapiens, UniProt P00533, INS773NPH)
T1 construct: expressed in transfected cells; host or cells: Ba/F3
Experiment: Ba/F3 cell proliferation suppression, EGFR Exon20 ins NPH
Format: cell-based
Conditions: GI50 class; Ba/F3 cell line with NPH inserted at Exon20 of EGFR; 72 hours
Summary of the method: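 Cells (3000–5000/well) plated 24 h before compound, 12-point 3-fold dilutions at 0.3 nM to 50 um final; Ba/F3 lines grown with 5 ng/ml IL-3. Viability by CellTiter-Glo luminescence after 72 h, growth ratio vs control, GI50 from curves; triplicate.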

SMILES | Ba/F3 (NPH) Activity
C=CC(=O)Nc1cc(Nc2cc(N3OCC[C@@H]3c3cccc(C(F)(F)F)c3)ncn2)c(OC)cc1N1CCC(N2C[C@H]3C[C@@H]2CO3)CC1 [compound 943, N-(2-(4-((1R,4R)-2-oxa-5-azabicyclo [2.2.1]heptane-5-yl)piperidine-1-yl)-4-methoxy-5-((6-((R)-3-(3-(trifluoromethyl)phenyl)isoxazolidine-2-yl)pyrimidine-4-yl)amino)phenyl) acrylamide] | A (GI50 < 50 nM)
C=CC(=O)Nc1cc(Nc2cc(N3OCC[C@@H]3c3cccc(Cl)c3Cl)ncn2)c(OC)cc1N1C[C@H]2C[C@@H]1CO2 [compound 523, N-(2-((1R,4R)-2-oxa-5-azabicyclo[2.2.1]heptane-5-yl)-5-((6-((R)-3-(2,3-dichlorophenyl)isoxazolidine-2-yl)pyrimidine-4-yl)amino)-4-methoxyphenyl) acrylamide] | A (GI50 < 50 nM)
C=CC(=O)Nc1cc(Nc2cc(N3OCC[C@@H]3c3cccc(C#N)c3)ncn2)c(OC)cc1N1CCC(N2CCOCC2)CC1 [compound 400, N-(5-((6-((R)-3-(3-cyanophenyl)isoxazolidine-2-yl)pyrimidine-4-yl)amino)-4-methoxy-2-(4-morpholinopiperidine-1-yl)phenyl)acrylamide] | A (GI50 < 50 nM)
C=CC(=O)Nc1cc(Nc2cc(N3OCC[C@@H]3c3ccc(C)nc3)ncn2)c(OC)cc1N1CC[C@@H](N(C)C)C1 [Example 221, N-(2-((R)-3-(dimethylamino)pyrolidine-1-yl)-4-methoxy-5-((6-((R)-3-(6-methylpyridine-3-yl)isoxazolidine-2-yl)pyrimidine-4-yl)amino)phenyl) acrylamide] | B (50 nM ≤ GI50 < 500 nM)
C=CC(=O)Nc1cc(Nc2cc(N3OCC[C@@H]3c3ccc(F)cc3)ncn2)c(OC)cc1N1CCC(N2C[C@@H]3C[C@H]2CO3)CC1 [compound 812, N-(2-(4-((1S,4S)-2-oxa-5-azabicyclo [2.2.1]heptane-5-yl)piperidine-1-yl)-5-((6-((R)-3-(4-fluorophenyl)isoxazolidine-2-yl)pyrimidine-4-yl)amino)-4-methoxyphenyl) acrylamide] | A (GI50 < 50 nM)
C=CC(=O)Nc1cc(Nc2cc(N3OCC[C@@H]3c3cccc(OC)c3)ncn2)c(OC)cc1N(C)CCN(C)C [Example 24, N-(2-((2-(dimethylamino)ethyl) (methyl)amino)-4-methoxy-5-((6-((R)-3-(3-methoxyphenyl)isoxazolidine-2-yl)pyrimidine-4-yl)amino)phenyl) acrylamide] | A (GI50 < 50 nM)
C=CC(=O)Nc1cc(Nc2cc(N3OCC[C@@H]3Cc3cc(F)cc(F)c3)ncn2)c(OC)cc1N1CCC(N2C[C@H]3C[C@@H]2CO3)CC1 [compound 1034, N-(2-(4-((1R,4R)-2-oxa-5-azabicyclo [2.2.1]heptane-5-yl)piperidine-1-yl)-5-((6-((S)-3-(3,5-difluorobenzyl)isoxazolidine-2-yl)pyrimidine-4-yl)amino)-4-methoxyphenyl) acrylamide] | A (GI50 < 50 nM)
C=CC(=O)Nc1cc(Nc2cc(N3OCC[C@@H]3c3ccc(Cl)c(Cl)c3)ncn2)c(OC)cc1N1CC[C@@H](N(C)C)C1 [compound 682, N-(5-((6-((R)-3-(3,4-dichlorophenyl)isoxazolidine-2-yl)pyrimidine-4-yl)amino)-2-((R)-3-(dimethylamino)pyrolidine-1-yl)-4-methoxyphenyl) acrylamide] | A (GI50 < 50 nM)

Continued, values first:

Ba/F3 (NPH) Activity | SMILES
A (GI50 < 50 nM) | C=CC(=O)Nc1cc(Nc2cc(N3OCC[C@@H]3c3ccc(Cl)cc3)ncn2)c(OC)cc1N1CCC(N2CCN(C(C)C)CC2)CC1 [compound 807, N-(5-((6-((R)-3-(4-chlorophenyl)isoxazolidine-2-yl)pyrimidine-4-yl)amino)-2-(4-(4-isopropylpiperazine-1-yl)piperidine-1-yl)-4-methoxyphenyl) acrylamide]
A (GI50 < 50 nM) | C=CC(=O)Nc1cc(Nc2cc(N3OCC[C@@H]3c3ccc(F)cc3F)ncn2)c(OC)cc1N1CCC(N2CCN(C3CCOCC3)CC2)CC1 [Example 207, N-(5-((6-((R)-3-(2,4-difluorophenyl)isoxazolidine-2-yl)pyrimidine-4-yl)amino)-4-methoxy-2-(4-(4-(tetrahydro-2H-pyran-4-yl)piperazine-1-yl)piperidine-1-yl)phenyl)acrylamide]
B (50 nM ≤ GI50 < 500 nM) | C=CC(=O)Nc1cc(Nc2cc(N3OCC[C@@H]3c3ccc(C)nc3)ncn2)c(OC)cc1N1CCC(N2CCN(CC)CC2)CC1 [Example 41, N-(2-(4-(4-ethylpiperazine-1-yl)piperidine-1-yl)-4-methoxy-5-((6((R)-3-(6-methylpyridine-3-yl)isoxazolidine-2-yl)pyrimidine-4-yl)amino)phenyl) acrylamide]
A (GI50 < 50 nM) | C=CC(=O)Nc1cc(Nc2cc(N3OCC[C@@H]3c3cccc(F)c3Cl)ncn2)c(OC)cc1N1CCC(N2C[C@H]3C[C@@H]2CO3)CC1 [compound 634, N-(2-(4-((1R,4R)-2-oxa-5-azabicyclo [2.2.1]heptane-5-yl)piperidine-1-yl)-5-((6-((R)-3-(2-chloro-3-fluorophenyl)isoxazolidine-2-yl)pyrimidine-4-yl)amino)-4-methoxyphenyl) acrylamide]
A (GI50 < 50 nM) | C=CC(=O)Nc1cc(Nc2cc(N3OCC[C@@H]3c3ccc(Cl)cc3)ncn2)c(OC)cc1N1CCC(N2CCN(CC)CC2)CC1 [Example 254, N-(5-((6-((R)-3-(4-chlorophenyl)isoxazolidine-2-yl)pyrimidine-4-yl)amino)-2-(4-(4-ethylpiperazine-1-yl)piperidine-1-yl)-4-methoxyphenyl) acrylamide]
A (GI50 < 50 nM) | C=CC(=O)Nc1cc(Nc2cc(N3OCC[C@@H]3c3cccc(Cl)c3Cl)ncn2)c(OC)cc1N1CCC(N2CCN(CC3CC3)CC2)CC1 [Example 204, N-(2-(4-(4-(cyclopropylmethyl)piperazine-1-yl)piperidine-1-yl)-5-((6-((R)-3-(2,3-dichlorophenyl)isoxazolidine-2-yl)pyrimidine-4-yl)amino)-4-methoxyphenyl) acrylamide]
A (GI50 < 50 nM) | C=CC(=O)Nc1cc(Nc2cc(N3OCC[C@@H]3c3cccc(OC)c3)ncn2)c(OC)cc1N1CCC(N2CCN(C(C)=O)CC2)CC1 [compound 779, N-(2-(4-(4-acetylpiperazine-1-yl)piperidine-1-yl)-4-methoxy-5-((6-((R)-3-(3-methoxyphenyl)isoxazolidine-2-yl)pyrimidine-4-yl)amino)phenyl)acrylamide]
A (GI50 < 50 nM) | C=CC(=O)Nc1cc(Nc2cc(N3OCC[C@@H]3c3cccc(Cl)c3F)ncn2)c(OC)cc1N1CCC(N2CCN(C3COC3)CC2)CC1 [Example 86, N-(5-((6-((R)-3-(3-chloro-2-fluorophenyl)isoxazolidine-2-yl)pyrimidine-4-yl)amino)-4-methoxy-2-(4-(4-(oxetane-3-yl)piperazine-1-yl)piperidine-1-yl)phenyl)acrylamide]
A (GI50 < 50 nM) | C=CC(=O)Nc1cc(Nc2cc(N3OCC[C@@H]3c3cccc(Cl)c3F)ncn2)c(OC)cc1N1CCC(N2CCN(CC3CC3)CC2)CC1 [Example 96, N-(5-((6-((R)-3-(3-chloro-2-fluorophenyl)isoxazolidine-2-yl)pyrimidine-4-yl)amino)-2-(4-(4-(cyclopropylmethyl)piperazine-1-yl)piperidine-1-yl)-4-methoxyphenyl) acrylamide]
